According to patent publication US20120027815A1, “USE OF PLASMA MEMBRANE CALCIUM ATPASE (PMCA) INHIBITORS TO INHIBIT SPERM MOBILITY” (priority 2003, published 2012):

What was measured:
sperm = assay: Suppression of sperm mobility, manual counting of motile vs non-motile sperm; format: cell-based, mouse; settings: incubated 1 hour at 37° C., 30% non-motile without inhibitor
Method: The inhibition of sperm function, i.e. the inhibition of sperm mobility, was determined as follows:
PMCA4-deficient male mice were sacrificed and the epididymis of each was prepared. These tissues were placed into 2 ml of a sperm preparation medium (“Sperm Preparation Medium” from the MediCult a/s Company, Möllehaven 12, 4040 Jyllinge, Denmark, comprising: Earle's balanced saline solution, sodium pyruvate, synthetic serum substitute, IIEPES [hydroxy-ethyl-piperazine ethanesulphonic acid], sodium bicarbonate, human serum albumen; penicillin 50,000 IU/liter and streptomycin 50 mg/litre; Kahn, J. A., Human Reproduction 8/9, pages 1414-1419, 1993; Lähteenmaki, A., Human Reproduction 10/1, pages 142-147, 1995) and a subsequent incision was made using a sterile scalpel. All functioning sperm were allowed 15 minutes to swim out of the epididymis. The supernatant containing these sperm was removed and mixed with 500 μl each of increasing concentrations of 5- and 6-carboxyeosindiacetate succinimidyl ester (CE). Following this step, the sperm were incubated for 1 hour at 37° C. CE diffuses into the sperm during this time; the ester is hydrolyzed on the intracellular level. Afterwards, the remaining motile sperm were counted in relation to the non-motile ones.

normal sperm = assay: Inhibition of sperm motility evaluated automatically with the CASA System 4.2; format: cell-based, mouse; settings: Group C: normal sperm, 45 minutes after preparation, 37° C., 30 minutes with 20 μM inhibitor
Method: PMCA4-deficient male mice were sacrificed and the epididymis of each was prepared. These tissues were placed into 2 ml of a sperm preparation medium (“Sperm Preparation Medium” from the MediCult a/s Company, Möllehaven 12, 4040 Jyllinge, Denmark, comprising: Earle's balanced saline solution, sodium pyruvate, synthetic serum substitute, IIEPES [hydroxy-ethyl-piperazine ethanesulphonic acid], sodium bicarbonate, human serum albumen; penicillin 50,000 IU/liter and streptomycin 50 mg/litre; Kahn, J. A., Human Reproduction 8/9, pages 1414-1419, 1993; Lähteenmaki, A., Human Reproduction 10/1, pages 142-147, 1995) and a subsequent incision was made using a sterile scalpel. All functioning sperm were allowed 15 minutes to swim out of the epididymis. […] Afterwards, the remaining motile sperm were counted in relation to the non-motile ones.
The inhibition of sperm motility was further evaluated automatically using the CASA System 4.2 from the medeaLAB Company, Erlangen, Germany. […]
For the above automated experimental protocol, the incubation time (compared to manual counting) was shortened (only 30 minutes instead of 1 hour) and the software also recorded non-meaningful objects that were present in the sample, such objects could be readily excluded with manual counting.

PMCA = settings: in vitro; cited from earlier work

Substance: 5- and 6-carboxyeosindiacetate succinimidyl ester
- Non-motile sperm (sperm; CE concentration 5 μM): 90%
- Non-motile sperm (sperm; CE concentration 20 μM): 95%
- Non-motile sperm (sperm; CE concentration 100 μM): 97%
- locally mobile or non-motile (normal sperm; untreated Group A 27%): 78%
- Progressive motility (normal sperm; untreated Group A 73%): 22%

Substance: Caloxin 2A1: polypeptide with the amino acid sequence VSNSNWPSFPSSGGG, acts extracellularly on PMCA
- Binding to PMCA and influence on PMCA function (PMCA): binds extra-cellularly to PMCA and has an inhibitory influence on the function of the PMCA
